The text below walks through data of ChEMBL document CHEMBL4665781, “Metabolomic Comparison and Assessment of Co-cultivation and a Heat-Killed Inducer Strategy in Activation of Cryptic Biosynthetic Pathways” (J Nat Prod, 2020).

Activity calls are given as the source filed them. No cut-off for these calls is given here.

One data set concerns Enterococcus faecium. The data set is described as follows: Antimicrobial activity against vancomycin-resistant Enterococcus faecium EF379 after 22 hrs by CLSI protocol based microbroth dilution assay. In kind it is functional, organism-based. For orientation: Dilution methods test growth across graded concentrations, often in twofold steps.
A further data set deals with Proteus vulgaris. The data set is described as follows: Antimicrobial activity against Proteus vulgaris ATCC 12454 after 22 hrs by CLSI protocol based microbroth dilution assay. It counts as functional, organism-based.
The next data set relates to Candida albicans. The experiment in a line: Antimicrobial activity against Candida albicans ATCC 14035 after 22 hrs by CLSI protocol based microbroth dilution assay. In kind it is functional, organism-based.
Data set [1] is described as follows: Cytotoxicity against human HTB26 cells assessed as reduction in cell viability after 24 hrs by alamar blue dye based assay. As to conditions: HTB26, 24 h.
Another data set relates to Staphylococcus warneri. The data set is described as follows: Antimicrobial activity against Staphylococcus warneri ATCC 17917 after 22 hrs by CLSI protocol based microbroth dilution assay. In kind it is functional, organism-based.
Data set [2] deals with MCF7. The experiment in a line: Cytotoxicity against human MCF7 cells assessed as reduction in cell viability after 24 hrs by alamar blue dye based assay. The conditions noted are these: MCF7, 24 h.
The next data set deals with Staphylococcus aureus. The data set is described as follows: Antimicrobial activity against methicillin-resistant Staphylococcus aureus ATCC 33591 after 22 hrs by CLSI protocol based microbroth dilution assay. In kind it is functional, organism-based.
The subject of the next data set is HCT-116. The data set is described as follows: Cytotoxicity against human HCT-116 cells assessed as reduction in cell viability up to 32 ug/ml after 24 hrs by alamar blue dye based assay. As to conditions: hct-116, 24 h. (In general: The colour change of resazurin is a common sign of viable cells or microbes.)
Data set [3] deals with MCF7. The experiment in a line: Cytotoxicity against human MCF7 cells assessed as reduction in cell viability up to 32 ug/ml after 24 hrs by alamar blue dye based assay. The conditions noted are these: mcf7, 24 h.
Data set [4] can be described thus: Cytotoxicity against human HTB26 cells assessed as reduction in cell viability up to 32 ug/ml after 24 hrs by alamar blue dye based assay. The conditions noted are these: htb26, 24 h.
Another data set deals with Vero. The data set is described as follows: Cytotoxicity against African green monkey Vero cells assessed as reduction in cell viability up to 32 ug/ml after 24 hrs by alamar blue dye based assay. The conditions noted are these: chlorocebus sabaeus.

The IC50 is the concentration that inhibits the measured activity by half. Take `CCCCCCCC1=C(C)C(=O)C(=O)c2c1[nH]c1ccccc21`: the result in the data set with Enterococcus faecium, in the data set with Proteus vulgaris, with Candida albicans, in the data set on Staphylococcus warneri and with Staphylococcus aureus was inactive. Moreover, the half-inhibitory concentration (IC50) in data set [1] stood at 3.67 µM; in the data set with MCF7 [2] it was 3.07 µM.

Turning to `COc1cccc(C(=O)NC(N)=O)c1O`, the result in the data set on Enterococcus faecium, in the data set with Proteus vulgaris, in the data set with Candida albicans, in the data set with Staphylococcus warneri and in the data set on Staphylococcus aureus was inactive. The Activity entry (in the data set on HCT-116; in the data set on MCF7 [3]; in [4]; in the data set on Vero) was “Non-Toxic” in each case.
